Results from ChEMBL document CHEMBL1201862, “PubChem BioAssay data set” (2004).
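Method: 48-hour compound exposure of cells in 96-well plates, five concentrations, linear interpolation of endpoints. Here, GI50 denotes the concentration required for 50% inhibition of growth.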 Activity calls are given as the source filed them. Rule as the data show it: active = GI50 up to about 1.1 µM and inactive = higher.

What was measured:
Test in all cases: DTP human tumour cell line panel, 48 h
[1] = tested on: Hs-578T
[2] = tested on: DMS-114
[3] = tested on: DMS-273
[4] = tested on: KM-20L2
[5] = tested on: XF498
[6] = tested on: SNB-78
[7] = tested on: DLD-1
[8] = tested on: HOP-18

O=C1c2ccccc2C(=O)c2c(Nc3cc4c5c(ccc6c7ccc8c9c(cc(Nc%10cccc%11c%10C(=O)c%10ccccc%10C%11=O)c(c3c56)c97)-c3ccccc3C8=O)C(=O)c3ccccc3-4)cccc21
GI50 [1]: 18.1 µM (inactive)

CCSC(=O)N1c2ccc(OC)cc2C=CC1C#N (stereo unspecified)
GI50 [2]: < 0.01 µM (active) | GI50 [3]: < 0.01 µM (active) | GI50 [1]: 0.36 µM (active) | GI50 [4]: < 0.01 µM (active) | GI50 [5]: < 0.01 µM (active) | GI50 [6]: 51.8 µM (inactive) | GI50 [7]: < 0.01 µM (active)

CN(C)c1ccc(C=c2c3ccccc3n3c2c2ccccc2[n+]3C)cc1
GI50 [1]: 0.635 µM (active)

CC1CCCCNC1=S (stereo unspecified)
GI50 [1]: > 10 µM (inactive)

CCOC(=O)O/C(=C\c1ccc(OC)cc1)c1c(OC(=O)OCC)n(C(=O)OCC)c2ccccc12
GI50 [1]: 22.3 µM (inactive)

Cn1c2ccccc2n2c(=O)c3cc([N+](=O)[O-])ccc3c(C#N)c12
GI50 [1]: > 100 µM (inactive)

C1CN(c2nc3c(nnc4nc(N5CCOCC5)sc43)s2)CCO1
GI50 [1]: 53.6 µM (inactive)

O=C(Nc1ccccc1-c1n[nH]c(S)nc1=O)C(F)(F)F
GI50 [2]: > 100 µM (inactive) | GI50 [3]: > 100 µM (inactive) | GI50 [5]: > 100 µM (inactive) | GI50 [6]: > 100 µM (inactive) | GI50 [7]: > 100 µM (inactive)

CCOC(=O)[C@@]12C[C@](/C=C/OC)(O[Si](C)(C)C)[C@@]13c1cc(OC)c(OC)cc1CCN3C(=O)C2=O
GI50 [1]: > 100 µM (inactive)

CC(=O)NC1C(OCc2ccccc2)OC(CO)C(O)C1OC(C)C(=O)N[C@@H](C)C(=O)N[C@H](CCC(=O)OCCNc1c2ccccc2nc2cccc([N+](=O)[O-])c12)C(N)=O (stereo partly specified)
GI50 [8]: 0.000354 µM (active) | GI50 [3]: 0.0016 µM (active) | GI50 [4]: 0.000175 µM (active) | GI50 [6]: 0.0252 µM (active) | GI50 [7]: 0.00139 µM (active)

O=C1/C(=C/c2cccc([N+](=O)[O-])c2)N=C(c2ccccc2)N1c1nc2ccc(Sc3ccccc3)cc2[nH]1
GI50 [1]: 35.5 µM (inactive)

O=P(O)(Cc1ccccc1)c1ccccc1-c1ccccc1
GI50 [1]: > 100 µM (inactive)

C/C=C1/CN2CC[C@@H]3c4ccccc4N4[C@H](C(=O)OC)[C@H]1C[C@H]2[C@]34/C=C/C1=COC[C@@H]2[C@H]1C[C@H]1c3c(c4ccccc4n3C)C[C@@H]2N1C
GI50 [1]: 4.48 µM (inactive)

O=C1/C(=C\c2ccccc2)c2ccccc2N1Cc1ccccc1
GI50 [1]: 5.14 µM (inactive)

[N-]=[N+]=NC[C@H]1OCO[C@H](CN=[N+]=[N-])[C@H]2OCCOCCOc3ccccc3OCCOCCO[C@@H]21
GI50 [1]: > 100 µM (inactive)

Oc1ccccc1/C=N/c1ccc(-c2nc3ccccc3s2)cc1
GI50 [1]: 30.7 µM (inactive)

C=C1CC2CCCC12C=O (stereo unspecified)
GI50 [1]: > 10 µM (inactive)

O=c1[nH]c(-c2ccc([N+](=O)[O-])cc2)nc2ccc(Cl)cc12
GI50 [3]: > 100 µM (inactive) | GI50 [4]: > 100 µM (inactive) | GI50 [6]: > 100 µM (inactive)

O=c1nc2n(c3nsnc13)CCO2
GI50 [2]: 36.6 µM (inactive) | GI50 [3]: > 100 µM (inactive) | GI50 [4]: > 100 µM (inactive) | GI50 [5]: > 100 µM (inactive) | GI50 [7]: > 100 µM (inactive)

COC(OC)(c1ccccc1)C(Br)Br
GI50 [1]: 78 µM (inactive)

CC1(C)OC2C(CO)OC(N/C(=N/C#N)Oc3ccccc3)C2O1 (stereo unspecified)
GI50 [2]: > 100 µM (inactive) | GI50 [3]: > 100 µM (inactive) | GI50 [4]: > 100 µM (inactive) | GI50 [5]: > 100 µM (inactive) | GI50 [6]: > 100 µM (inactive) | GI50 [7]: > 100 µM (inactive)

O=C1CS(=O)(=O)C(c2cccc(Oc3ccccc3)c2)N1c1ccccc1 (stereo unspecified)
GI50 [1]: 28.4 µM (inactive)

CN(CCNC(=O)c1c[nH]c2c1Cc1ccccc1-2)CCNC(=O)c1c[nH]c2c1Cc1ccccc1-2
GI50 [1]: 35.3 µM (inactive)

NS(=O)(=O)c1ccc(NNc2c3ccccc3nc3c(C(=O)Nc4ccc(S(=O)(=O)Nc5ncccn5)cc4)cccc23)cc1
GI50 [1]: > 25 µM (inactive)

C=C(Br)CN(C#N)CC(=C)Br
GI50 [1]: > 100 µM (inactive)

Cn1c(=O)c2ccccc2c2nc3ccccc3nc21
GI50 [2]: > 100 µM (inactive) | GI50 [3]: > 100 µM (inactive) | GI50 [4]: > 100 µM (inactive) | GI50 [6]: 68.7 µM (inactive)

O=C1CC(CC(O)[C@@H]2CCCC[C@@H]2O)CC(=O)N1c1ccccc1 (stereo partly specified)
GI50 [1]: > 100 µM (inactive)

NNC(=O)c1c(SCc2ccccc2)nc2c3ccccc3ccn12
GI50 [1]: 80.4 µM (inactive)

c1csc(-c2ccsc2-c2ccsc2)c1
GI50 [1]: 90.2 µM (inactive)

NCCC1([N+](=O)[O-])C=CN=CC1 (stereo unspecified)
GI50 [1]: > 100 µM (inactive)

CCC1CN(C(=O)c2ccccc2)C(Cc2c[nH]c3ccccc23)C(=O)C1CC(=O)OC (stereo unspecified)
GI50 [1]: 51.8 µM (inactive)

O=C(OCc1ccccc1)C(Cc1ccc(OCc2ccccc2)cn1)NC(=O)C(F)(F)F (stereo unspecified)
GI50 [1]: > 100 µM (inactive)

COc1ccccc1CNCc1nc2ccccc2[nH]1
GI50 [1]: > 100 µM (inactive)

CCOCC(=O)N[C@H]1CCc2cc(OC(=O)COCC)c(OC)c(OC)c2-c2ccc(SC)c(=O)cc21
GI50 [1]: 0.0122 µM (active)

O=C(Nc1ccn(CCOC(=O)c2ccccc2)c(=O)n1)c1ccccc1
GI50 [2]: > 100 µM (inactive) | GI50 [8]: > 100 µM (inactive) | GI50 [3]: > 100 µM (inactive) | GI50 [4]: > 100 µM (inactive) | GI50 [6]: > 100 µM (inactive)

Cn1c2c3ccc(Cl)cc3nc-2c(Cl)c2ccccc21
GI50 [1]: 40.6 µM (inactive)

Cc1ccc(S(=O)(=O)N(CCN)c2cc3c4c(c2)Oc2cccc5c2C4c2c(cccc2O3)O5)cc1
GI50 [1]: 17 µM (inactive)

Cc1cc(O)cc(O)c1/N=N/c1ccc([N+](=O)[O-])cc1
GI50 [1]: 27.5 µM (inactive)

CN(C)CCN(C)CC1COC(C)(C)O1 (stereo unspecified)
GI50 [8]: > 100 µM (inactive) | GI50 [3]: > 100 µM (inactive) | GI50 [4]: > 100 µM (inactive) | GI50 [5]: > 100 µM (inactive) | GI50 [6]: > 100 µM (inactive) | GI50 [7]: > 100 µM (inactive)

N#Cc1cccc(C2ON=C(c3ccc([N+](=O)[O-])cc3)N2C23CC4CC(CC(C4)C2)C3)c1 (stereo unspecified)
GI50 [1]: 39.8 µM (inactive)

Cc1ccc(S(=O)(=O)NC(C(=O)O)C(C)C)cc1 (stereo unspecified)
GI50 [1]: > 100 µM (inactive)

Cn1c(SCc2c[nH]c3ccccc23)nnc1-c1ccc(Cl)cc1Cl
GI50 [1]: 19.7 µM (inactive)

Cc1nc(C)c(C(=O)NNC(=O)c2ccccc2)cc1C(=O)NNC(=O)c1ccccc1
GI50 [1]: > 100 µM (inactive)

CC(NC(=O)C(N)CC(=O)O)NC(=O)C1CCC1 (stereo unspecified)
GI50 [1]: > 100 µM (inactive)

C#CCNC(CS)C(=O)O (stereo unspecified)
GI50 [1]: > 100 µM (inactive)

CNC(=S)N(C)C(=S)Nn1c(=O)c(C)nn(C)c1=S
GI50 [2]: > 100 µM (inactive) | GI50 [8]: > 100 µM (inactive) | GI50 [3]: > 100 µM (inactive) | GI50 [4]: > 100 µM (inactive) | GI50 [6]: > 100 µM (inactive) | GI50 [7]: > 100 µM (inactive)

CN1CCOC1(C)CO (stereo unspecified)
GI50 [1]: > 100 µM (inactive)

CCC(C)[C@@H](NC1=C(Cl)C(=O)c2c(O)ccc(O)c2C1=O)C(=O)OC (stereo partly specified)
GI50 [1]: > 10 µM (inactive)

O=[N+]([O-])c1ccc(/C=C/c2ccc(/N=N/c3ccc(/C=C/c4ccc([N+](=O)[O-])cc4S(=O)(=O)O)c(S(=O)(=O)O)c3)cc2S(=O)(=O)O)c(S(=O)(=O)O)c1
GI50 [2]: > 100 µM (inactive) | GI50 [8]: > 74.6 µM (inactive) | GI50 [3]: > 71 µM (inactive) | GI50 [5]: > 78 µM (inactive) | GI50 [6]: > 83.6 µM (inactive) | GI50 [7]: > 100 µM (inactive)

CC(NNC(=O)c1cc[n+]([BH2-]C#N)cc1)c1cccc(F)c1 (stereo unspecified)
GI50 [1]: > 100 µM (inactive)

CCCC1CCC(=C2C(=O)CCC2=O)O1 (stereo unspecified)
GI50 [1]: > 100 µM (inactive)

C[O+]=C1C=CC(=C2SC(c3ccccc3)(c3ccccc3)c3ccccc32)C=C1.[O-][Cl+3]([O-])([O-])[O-]
GI50 [1]: 18.6 µM (inactive)

Oc1ccc2ccccc2c1Cc1c(O)ccc2ccccc12
GI50 [1]: 14.2 µM (inactive)

O=CN/C=C/c1ccccc1O
GI50 [2]: > 100 µM (inactive) | GI50 [8]: > 100 µM (inactive) | GI50 [3]: > 100 µM (inactive) | GI50 [4]: > 100 µM (inactive) | GI50 [6]: > 100 µM (inactive) | GI50 [7]: > 100 µM (inactive)
